Test results reported in ChEMBL document CHEMBL5331078, “1-Benzyloxy-5-phenyltetrazole derivatives highly active against androgen receptor-dependent prostate cancer cells” (Eur J Med Chem, 2023).
Active and inactive are the calls of the source. The calls are words filed in the database; no cut-off is given here.

Assays:
CWR22R [1] = assay: Downregulation of RRM2 gene expression in human 22Rv1 cells at 1 uM measured after 24 to 36 hrs by RNA sequencing analysis; type: functional, cell-based; details: time 24-36 hrs
CWR22R [2] = assay: Downregulation of androgen receptor in human 22Rv1 cells at 0.5 to 10 uM by Western blot analysis; type: functional, cell-based; details: dose 0.5-10 µM, time 24-36 hrs, TDE = time-dependent effect
[3] = AUC (0 to infinity) in rat at 5 mg/kg, iv measured upto 24 hrs by LC-MS/MS analysis; type: ADME, organism-based; set-up: time < 24 hrs, dose 5 mg/kg, route iv; details: in vivo
CWR22R [4] = assay: Downregulation of GINS1 gene expression in human 22Rv1 cells at 1 uM measured after 24 to 36 hrs by RNA sequencing analysis; type: functional, cell-based; details: time 24-36 hrs
[5] = Partition coefficient, logD of the compound at pH 7.4 by HPLC analysis; type: physicochemical; details: octanol/water
CWR22R [6] = assay: Downregulation of UHRF1 gene expression in human 22Rv1 cells at 1 uM measured after 24 to 36 hrs by RNA sequencing analysis; type: functional, cell-based; details: time 24-36 hrs
CWR22R [7] = assay: Downregulation of MTBP gene expression in human 22Rv1 cells at 1 uM measured after 24 to 36 hrs by RNA sequencing analysis; type: functional, cell-based; details: time 24-36 hrs
CWR22R [8] = assay: Downregulation of RAD51D gene expression in human 22Rv1 cells at 1 uM measured after 24 to 36 hrs by RNA sequencing analysis; type: functional, cell-based; details: time 24-36 hrs
CWR22R [9] = assay: Downregulation of Androgen receptor level in human 22Rv1 cells at 0.5 to 10 uM measured after 36 hrs by Western blot analysis; type: functional, cell-based; details: dose 0.5-10 µM
CWR22R [10] = assay: Downregulation of CDC6 gene expression in human 22Rv1 cells at 1 uM measured after 24 to 36 hrs by RNA sequencing analysis; type: functional, cell-based; details: time 24-36 hrs
CWR22R [11] = assay: Downregulation of PCNA gene expression in human 22Rv1 cells at 1 uM measured after 24 to 36 hrs by RNA sequencing analysis; type: functional, cell-based; details: time 24-36 hrs
CWR22R [12] = assay: Downregulation of BRCA1 gene expression in human 22Rv1 cells at 1 uM measured after 24 to 36 hrs by RNA sequencing analysis; type: functional, cell-based; details: time 24-36 hrs
CWR22R [13] = assay: Downregulation of DNMT1 gene expression in human 22Rv1 cells at 1 uM measured after 24 to 36 hrs by RNA sequencing analysis; type: functional, cell-based; details: time 24-36 hrs
[14] = AUC (0 to t) in rat at 5 mg/kg, iv measured upto 24 hrs by LC-MS/MS analysis; type: ADME, organism-based; set-up: dose 5 mg/kg, time < 24 hrs, route iv; details: in vivo
CWR22R [15] = assay: Downregulation of E2F gene expression in human 22Rv1 cells at 1 uM measured after 24 to 36 hrs by RNA sequencing analysis; type: functional, cell-based; details: time 24-36 hrs
CWR22R [16] = assay: Downregulation of POLE2 gene expression in human 22Rv1 cells at 1 uM measured after 24 to 36 hrs by RNA sequencing analysis; type: functional, cell-based; details: time 24-36 hrs
CWR22R [17] = assay: Downregulation of CDK2 gene expression in human 22Rv1 cells at 1 uM measured after 24 to 36 hrs by RNA sequencing analysis; type: functional, cell-based; details: time 24-36 hrs
CWR22R [18] = assay: Downregulation of androgen receptor in human 22Rv1 cells measured for 24 to 36 hrs by Western blot analysis; type: functional, cell-based; details: dose 0.5-10 µM, time 24-36 hrs
[19] = Kinetic solubility of the compound in 0.01 M HCl at pH 2 after 30 mins by nephelometry; type: physicochemical; details: read-out: Kinetic_solubility
[20] = Clearance in rat at 5 mg/kg, iv measured upto 24 hrs by LC-MS/MS analysis; type: ADME, organism-based; details: in vivo
CWR22R [21] = assay: Downregulation of DDC gene expression in human 22Rv1 cells at 1 uM measured after 24 to 36 hrs by RNA sequencing analysis; type: functional, cell-based; details: time 24-36 hrs
[22] = C0 in rat at 5 mg/kg, iv measured upto 24 hrs by LC-MS/MS analysis; type: ADME, organism-based; details: in vivo
CWR22R [23] = assay: Downregulation of SKP2 gene expression in human 22Rv1 cells at 1 uM measured after 24 to 36 hrs by RNA sequencing analysis; type: functional, cell-based; details: time 24-36 hrs
CWR22R [24] = assay: Downregulation of GRB10 gene expression in human 22Rv1 cells at 1 uM measured after 24 to 36 hrs by RNA sequencing analysis; type: functional, cell-based; details: time 24-36 hrs
[25] = Volume of distribution at steady state in rat at 5 mg/kg, iv measured upto 24 hrs by LC-MS/MS analysis; type: ADME, organism-based; details: in vivo, read-out: Vdss
CWR22R [26] = assay: Downregulation of BRCA2 gene expression in human 22Rv1 cells at 1 uM measured after 24 to 36 hrs by RNA sequencing analysis; type: functional, cell-based; details: time 24-36 hrs
[27] = Half life in rat at 5 mg/kg, iv measured upto 24 hrs by LC-MS/MS analysis; type: ADME, organism-based; details: in vivo
CWR22R [28] = assay: Downregulation of CHEK1 gene expression in human 22Rv1 cells at 1 uM measured after 24 to 36 hrs by RNA sequencing analysis; type: functional, cell-based; details: time 24-36 hrs
[29] = MRT (0 to infinity) in rat at 5 mg/kg, iv measured upto 24 hrs by LC-MS/MS analysis; type: ADME, organism-based; details: in vivo
CWR22R [30] = assay: Downregulation of MCM10 gene expression in human 22Rv1 cells at 1 uM measured after 24 to 36 hrs by RNA sequencing analysis; type: functional, cell-based; details: time 24-36 hrs
CWR22R [31] = assay: Downregulation of AR-v7 level in human 22Rv1 cells at 0.5 to 10 uM measured after 36 hrs by Western blot analysis; type: functional, cell-based; details: dose 0.5-10 µM
PC-3 = assay: Antiproliferative activity against human PC-3 cells measured after 3 days by celltiter-glo luminescence assay; type: functional, cell-based; details: PC-3, 72 h
CWR22R [32] = assay: Downregulation of AR-v7 level in human 22Rv1 cells at 0.5 to 10 uM by Western blot analysis; type: functional, cell-based; details: dose 0.5-10 µM, time 24-36 hrs, TDE = time-dependent effect
CWR22R [33] = assay: Downregulation of CDC25A gene expression in human 22Rv1 cells at 1 uM measured after 24 to 36 hrs by RNA sequencing analysis; type: functional, cell-based; details: time 24-36 hrs
CWR22R [34] = assay: Downregulation of E2F1 gene expression in human 22Rv1 cells at 1 uM measured after 24 to 36 hrs by RNA sequencing analysis; type: functional, cell-based; details: time 24-36 hrs
[35] = Kinetic solubility of the compound in phosphate buffer at pH 6.5 after 30 mins by nephelometry; type: physicochemical; details: read-out: Kinetic_solubility
[36] = Antiproliferative activity against Ar-luc mouse Adipose stromal cell measured after 3 days by celltiter-glo luminescence assay; type: toxicity, cell-based; details: Ar-luc mouse adipose stromal cells
CWR22R [37] = assay: Downregulation of AR-v7 level in human 22Rv1 cells measured for 24 to 36 hrs by Western blot analysis; type: functional, cell-based; details: dose 0.5-10 µM, time 24-36 hrs
[38] = Metabolic stability in mouse liver microsomes assessed as half life incubated for 60 mins in presence of NADPH-regenerating system; type: ADME, Microsome; details: liver microsomes
[39] = Toxicity in NOD-SCID mouse assessed as effect on body weight loss at 10 mg/kg/day, ip measured upto 20 days; type: organism-based; details: in vivo, 480 h, time < 20 day
CWR22R [40] = assay: Downregulation of MYC gene expression in human 22Rv1 cells at 1 uM measured after 24 to 36 hrs by RNA sequencing analysis; type: functional, cell-based; details: time 24-36 hrs
CWR22R [41] = assay: Downregulation of GREB1L gene expression in human 22Rv1 cells at 1 uM measured after 24 to 36 hrs by RNA sequencing analysis; type: functional, cell-based; details: time 24-36 hrs
CWR22R [42] = assay: Downregulation of CDC7 gene expression in human 22Rv1 cells at 1 uM measured after 24 to 36 hrs by RNA sequencing analysis; type: functional, cell-based; details: time 24-36 hrs
CWR22R [43] = assay: Antitumor activity against human 22Rv1 cells xenografted in NOD-SCID mouse assessed as inhibition of tumor growth at 10 mg/kg/day, ip measured upto 20 days; type: functional, organism-based; details: time <= 20.0 day

## Clc1ccc(COn2nnnc2-c2ccc(Cl)cc2)cc1
CWR22R [1]
  Activity: Active
CWR22R [2]
  Activity: Tde
[3]
  AUC(0-inf): 1100 ng·h/mL
CWR22R [4]
  Activity: Active
[5]
  logD: 4.5
CWR22R [6]
  Activity: Active
CWR22R [7]
  Activity: Active
CWR22R [8]
  Activity: Active
CWR22R [9]
  Activity: Active
CWR22R [10]
  Activity: Active
CWR22R [11]
  Activity: Active
CWR22R [12]
  Activity: Active
CWR22R [13]
  Activity: Active
[14]
  AUC(0-t) at 24 h: 1080 ng·h/mL
CWR22R [15]
  Activity: Active
CWR22R [16]
  Activity: Active
CWR22R [17]
  Activity: Active
CWR22R [18]
  Activity: Dose-Dependent Effect
[19]
  solubility kinetic at 0.5 h: < 1.6 µg/mL
[20]
  clearance: 75.9 mL/min/kg
CWR22R [21]
  Activity: Active
[22]
  C0 at 24 h: 5480 ng/mL
CWR22R [23]
  Activity: Active
CWR22R [24]
  Activity: Active
[25]
  Vd: 1.53 L/kg
CWR22R [26]
  Activity: Active
[27]
  half-life: 55.1 min
CWR22R [28]
  Activity: Active
[29]
  MRT inf: 20.2 min
CWR22R [30]
  Activity: Active
CWR22R [31]
  Activity: Active
PC-3
  IC50: > 100 µM
CWR22R [32]
  Activity: Tde
CWR22R [33]
  Activity: Active
CWR22R [34]
  Activity: Active
[35]
  solubility kinetic at 0.5 h: < 1.6 µg/mL
[36]
  IC50 at 3 days: > 100 µM
CWR22R [37]
  Activity: Dose-Dependent Effect
[38]
  half-life: 21 min
[39]
  Activity: Non-Toxic
CWR22R [40]
  Activity: Active
CWR22R [41]
  Activity: Active
CWR22R [42]
  Activity: Active
CWR22R [43]
  Activity: Active
